Data taken from patent US20020061509A1, “Screening assay for the identification of agents which alter expression of PTH-rP” (Osteo Screen, priority 1996, published 2002).

Columns and labels:
PTH-rP promoter = test: PTH-rP promoter-firefly luciferase reporter assay in stably transfected MDA-MB-231 cells (Clone 30); type: cell-based, human; conditions: concentration of 3.2 μM
Experimental: To perform studies on the PTH-rP promoter in whole cells, a human breast cancer cell line, MDA-MB-23 1 (kindly provided by C. Kent Osborne, San Antonio Tex.) and a human lung cancer cell line, RWGT2, were employed. Various PTH-rP promoters, described in Wysolmerski et al., 1996, were linked with the reporter gene firefly luciferase and stably transfected into cell lines. Plasmid constructs included pGL3B-PTH-rP1.1 and pGL4B-PTHrP 4.0. RWGT2 cells and MDA-MB-231 cells were cultured in DMEM (Life Technologies, Grand Island, N.Y.) with 10% FCS (Hyclone, Logan, Utah), 0.1% penicillin/streptomycin and 0.1% nonessential amino acids (Gibco) in 37° C. atmosphere of 5% CO2 /air.
Before stable transfection of MDA-MB-231 cells with pGL3B-PTH-rP1.1, the concentration of geneticin (G418) required to kill MDA 231 cells was determined to be 500 μg/ml. […]
Sucloning consisted of diluting the geneticin resistant MDA-MB-2311 cells containing pGL3B-PTHrP1.1 to a concentration of 0.3 cells/100 μl. […] The luciferase activity was assessed by luminometer. […] Routinely, 20 μl of cell lysate was mixed with 100 μl of luciferase assay reagent (270 μM co-enzyme A, 470 μM luciferin and 530 μM ATP) and the luciferase activity was measured for 10 seconds in a Turner TD-20e luminometer. […] The protein concentration was assessed using BioRed reagents. […]

[1] = tested on: RWGT2 cells (human squamous cell carcinoma of the lung); test: Hypercalcemia study: nude mice inoculated with RWGT2 cells; type: in vivo, BALB/c nude mice
Experimental: (§1) Compounds which are identified as regulating PTH-rP production were initially tested for their capacity to inhibit hypercalcemia in vivo by injecting tumor cells into nude mice and treating the mice with the potential inhibitory compounds. Specifically, compounds to be tested were injected into the subcutaneous tissue, intramuscularly, or intravenously into nude mice which were also inoculated with the human cancer cells which produce PTH-rP. The effects on the capacity of the tumor cells to cause hypercalcemia are then assessed over 2-4 weeks.
The tumor, designated RWGT2, is a human squamous cell carcinoma of the lung that was obtained from a hypercalcemic cancer patient (Guise et al, 1993). Metastatic tumor tissue was taken at the time of surgical repair of a pathologic fracture of the femur and implanted into athymic nude mice. The mice developed hypercalcemia, tumors, and increased serum PTH-rP concentrations. Tumor tissue from the mice was used to establish this cell line in culture. The cells produced PTH-rP in culture and reliably produced tumors and hypercalcemia when inoculated intramuscularly into the nude mice.
The RWGT2 cells are grown in culture in T75 flasks in α-minimal essential medium (αMEM, Hazelton Biologics Inc., Lenexa, Kans.) with 10% fetal calf serum and passaged twice a week. The mice are inoculated with RWGT2 cells by subcutaneous inoculation of 1×10^6 cells into the right flank of the upper leg.
All animal studies are conducted in accordance with the NIH Guide for the Care and Use of Laboratory Animals. Male BALB/c nude mice (Harlen), 4-6 weeks of age, are housed in a laminar flow isolator hood with a 12-hour-light/12-hour-dark cycle. Water, supplemented with multivitamins (Lymphomed, Melrose Park, Ill.) and autoclaved mouse chow (Ralston-Purina, St. Louis, Mo.) were provided ad libitum.
Weekly, the mice (each group n=5) are weighed and tumor diameters (long axis and mean axis width) are measured using calipers. Also whole blood samples for ionized calcium (Ca^2+) determination is obtained by retro-orbital puncture under anesthesia and measured using a Ciba Corning 634 ISE Ca^++/pH analyzer. Finally, blood samples for PTH-rP measurements is obtained by retro-orbital puncture and collected on ice, into pediatric vacutainer tubes containing ethylenediamine tetraacetate (EDTA) (Becton Dickinson, Rutherford, N.J.) and aprotinin (Sigma Chemical Company, St. Louis, Mo.), 400KIU/ml and stored at −70° C. Immunoreactive PTH-rP is measured using a 2 site IRMA kit available from Nichols Institute (San Juan Capistrano, Calif.).
For all experiments compound is administered when hypercalcemia is evident (treatment phase) or from the time of inoculation of RWGT2 cells (prevention phase).

[2] = tested on: MDA-MB-231 cells (human breast cell carcinoma); test: Osteolytic bone metastases study: nude mice inoculated with MDA-MB-231 cells into the left ventricle; type: in vivo, BALB/c nude mice; conditions: 50 mg/kg/day; vs vehicle alone
Experimental: as §1, with “inhibit bone metastases” for “inhibit hypercalcemia”, “cause osteolytic bone lesions” for “cause hypercalcemia”
The tumor, named MDA-MB-231, is a human breast cell carcinoma. […]
Weekly, the mice are weighed and whole blood samples for ionized calcium (Ca^2+) determination are obtained by retro-orbital puncture under anesthesia and measured using a Ciba Coming 634 ISE Ca^++/pH analyzer.
The number of osteolytic bone metastases is determined on radiographs as described by Nakai (1992). […] The area of osteolytic bone metastases is calculated using a computerized image analysis system in which examination of osteolytic lesions from radiographs is achieved using a fluorescent light box (Kaiser, Germany) and Macro TV Zoom lens 18-108 mm f2,5 (Olympus, Japan) attached to a color video camera (Model DXC- 1 51 Sony, Japan). […] Quantitation of lesion area is performed using image analysis software (Java, Jandel Video Analysis, Jandel Scientific, Calif.). […]

[3] = 50 mg/kg/day, administered from day 0 (prevention phase), vs vehicle alone

C[n+]1c2cc(N)ccc2cc2ccc(N)cc21.[Cl-] [MS 01500618, acriflavinium hydrochloride]
stimulation of the PTH-rP promoter assay (PTH-rP promoter): about 8 fold

C(=NNc1nnn[nH]1)c1ccccc1 [OSW3, 5-benzylidene hydrazino-1,2,34-tetrazole]
PTH-rP concentrations [1, 3]: able to lower
whole blood calcium concentrations [1, 3]: able to lower whole blood calcium concentrations
whole blood calcium concentrations ([1]; 50 mg/kg/day, after hypercalcemia is evident (treatment phase), vs vehicle alone): able to lower whole blood calcium concentrations
lesion area of osteolytic metastases [2]: able to significantly lower
lesion number of osteolytic metastases [2]: able to significantly lower

Nc1nc2nc[nH]c2c(=S)[nH]1 [OSW6, 6-thioguanine]
whole blood calcium concentrations ([1]; 10 mg/kg/day, administered from day 0 (prevention phase), vs vehicle alone): able to significantly lower whole blood calcium concentrations
whole blood calcium concentrations ([1]; 10 mg/kg/day, after hypercalcemia is evident (treatment phase), vs vehicle alone): able to lower whole blood calcium concentrations
size of the tumor ([1]; hypercalcemic mice treated (treatment phase)): reduced
